Here are results for one compound from patent US11464782B2, “Method of treating pain or interstitial cystitis using indole compound” (Japan Tobacco Inc., priority 2018, dated 2022).

Data set [1] relates to subjects with active rheumatoid arthritis. In words: Adverse events in rheumatoid arthritis human clinical trial. Type of data set: in vivo. On the procedure:
(§1) Compound A was evaluated in a multicenter, randomized, double-blind, placebo-controlled, parallel-group study in subjects with active rheumatoid arthritis. Subjects were randomized to receive orally placebo or an amount of monohydrochloride Compound A sufficient to provide 50 mg, 100 mg, 150 mg, or 200 mg of free form, once daily for 12 weeks.
The incidence of serious adverse events (SAEs) and severe treatment-emergent adverse events (TEAEs) in the clinical study was low (3.4% and 2.9%, respectively) in subjects who received treatment with one of the doses of Compound A in the clinical study.

Data set [2] has the same test system. In words: Pain evaluation in rheumatoid arthritis human clinical trial (pain NRS). Type of data set: in vivo. On the procedure:
as §1
Pain was evaluated using a Numerical Rating Scale (NRS) by subjects. The pain NRS represents the severity of their arthritis pain during the past 3 days using an 11-point scale from 0 (no pain) to 10 (maximum pain). An evaluation was made of how much NRS decreased from baseline NRS after drug administration.
Data from EOT (end of treatment), at 2 weeks, and at 12 weeks was obtained. EOT is a measurement point generally used in clinical studies. In a 12-week study, it refers to all analysis at the 12-week time point. However, since some subjects will have discontinued the study midway, the data at the time of discontinuation is treated as the EOT for these subjects (for example, data for week 8 is used as EOT for subjects who discontinued in week 8). 2-week (subjects who completed 2 weeks in full) and 12-week (subjects who completed 12 weeks in full) data are also presented.
Change in pain NRS was evaluated in two subgroups of patients, those with higher baseline pain levels (median baseline pain NRS≥8.0) and those with lower baseline pain levels (median baseline pain NRS<8.0). […] Although the magnitude of decrease in pain NRS was different between lower and higher baseline pain NRS subgroups, both subgroups ultimately achieved a pain NRS score of approximately 4.

The mark [3] stands for this setting: subjects who received one of the doses (50-200 mg once daily, 12 weeks).
Where [4] appears, read: rheumatoid arthritis subjects, 50-200 mg oral once daily.

Regarding `C[C@@H](C(=O)N(C)c1ccc2cc(-c3n[nH]c4c3CCC(C)(C)C4)[nH]c2c1)N1CCOCC1` [Compound A, N-[2-(6,6-dimethyl-4,5,6,7-tetrahydro-1H-indazol-3-yl)-1H-indol-6-yl]-N-methyl-(2S)-2-(morpholin-4-yl)propanamide], in data set [1] (doses up to 200 mg over 12 weeks of treatment), the safety and tolerability entry was “safe and tolerated”. Besides, in data set [1] (setting [3]), the “incidence of serious adverse events (SAEs)” value came out at 3.4% and the “incidence of severe treatment-emergent adverse events (TEAEs)” value is listed as 2.9%. The “pain NRS score ultimately achieved” value in data set [2] (both lower (<8.0) and higher (≥8.0) baseline pain NRS subgroups, 50-200 mg oral once daily for 12 weeks) is reported as “approximately 4”. For the same compound, in data set [2] (setting [4]), the “duration of anti-pain effects (long-lasting)” value was 12 weeks and the “time to anti-pain effects (rapid)” value is on record as ≤ 2 weeks. In addition, the “pain in subjects having severe pain” value in data set [2] (subjects having pain greater than or equal to 8 on the NRS scale) is given as “reduce pain”. Moreover, the “decrease in pain NRS by baseline pain subgroup” value in data set [2] (subjects with higher baseline pain levels (NRS≥8.0) versus lower (NRS<8.0)) was “Larger decreases in pain NRS were observed in subjects that began treatment with higher baseline pain levels”.
